Patent US6458381B1, “Lipids and their use, for example, in liposomes” (priority 1996, dated 2002)

Assays:
Format in all cases: cell-based, human
HeLa cells [1] = assay: Intracellular delivery of fluorescein labelled phosphothioate oligonucleotide, fluorescent microscopy
Description: HeLa cells (plated one day before the experiment, 2×10^5 cells per well, 6-well plate) were grown on glass microscope slides in 2 ml of RPMI 1640 supplemented with 10% FCS. Before the experiment, the medium was replaced with RPMI 1640 without serum.
Formation of oligonucleotide-compound (1) complexes was done as follows. 10 μg of phosphothioate oligonucleotide was dissolved in […] of transfection buffer. 16 μg and 50 μg of compound (1) were diluted with transfection buffer to the final volume of 100 μl. The two solutions were mixed together and incubated for 10 min. Oligonucleotide solution without compound (1) was diluted with 100 μl of transfection buffer. The resultant solutions (200 μl per well) were added to the cell cultures (final concentration of oligonucleotide was about 1 μM, compound (1) 8 μM and 25 μM). The complexes were incubated with the cells for 4 hours. The medium was then substituted with a complete growth medium.
At 4 and 24 hours, cells were washed three times with PBS and fixed with 1% glutaraldehyde solution for 15 min. After fixation, cells were washed three times with PBS and mounted in glycerol mounting solution (10 mM phosphate, 150 mM NaCl, 70% glycerol, pH 7.5). The localization of fluorescein labelled phosphothioate oligonucleotide was determined by fluorescent microscopy, using a Zeiss fluorescent microscope.

HeLa cells [2] = assay: Intracellular delivery of fluorescein labelled anionic polypeptide, fluorescent microscopy; details: 1 μM labelled polyanion in the presence of 25 μM compound (1)
K562 cells = assay: Transfection of K562 suspension cells with pCMVL, luciferase assay; details: K562, presence of serum
Description: HeLa (CCL2, epitheloid carcinoma, human), COS-7 (CRL 1651, kidney, SV-40 transformed, African green monkey), HT-29 (HTB 38, adenocarcinoma, colon, human), CV-1 (CCL 70, kidney, African green monkey), 818-4 (adenocarcinoma, pancreas, human), H4IIE (CRL 1548; hepatoma, rat), K562 (CCL 243; chronic myelogenous leukemia, human), HL-60 (CCL 240; promyelotic leukemia, human) were grown in 5% CO2 at 37° C. on plastic tissue culture flasks in RPMI 1640 or DMEM with 10% fetal calf serum and supplemented with penicillin at 100 units per ml, streptomycin at 100 μg per ml, 2 mM glutamine and 0.1 μM dexamethasone for H4IIE cells.
At 24 hours before transfection, the cells were placed in fresh complete growth medium. Just before transfection, the cells were collected, resuspended in fresh medium with or without 10% FCS at 0.25×10^6 cells per ml, and placed in 24-well plates, 2 ml per well.
The cells were normally harvested 24 hours after transfection (the time of harvesting is an important variable and should be optimized), collected by centrifugation and resuspended in 10 ml of PBS, again centrifuged, and the cell pellet was transferred into a 1.5 ml Eppendorf tube with 1 ml PBS. The cells were centrifuged in the Eppendorf centrifuge (14000 rpm for 20 sec), The resulting cells were lysed in 100 μl of lysis buffer (described above). […]

HeLa cells [3] = assay: Transfection of HeLa cells with pCMVL, luciferase assay
Description: The cells were resuspended in fresh medium and placed either in 24-well plates (5×10^4 cells per well) or in 6-well plates (2-2.5×10^4 cells per well). Just before transfection, the cells were placed in fresh medium with or without 10% FCS. In general, cells were transfected at 50 to 70% confluence. […] Cell debris was removed by centrifugation (14000 rpm for 2 min). Usually, enzyme activity (see below) was determined directly after cell lysis.
Plasmid DNA (from a stock solution of a concentration of about 1 mg/ml) and cationic lipids (from a stock solution of a concentration 1 to 2 mg/ml) were diluted separately in 1.5 ml Eppendorf tubes with 10 mM Hepes, 0.9% NaCl buffer, pH 7.4, to the final volume of 100 μl. The amount of DNA in typical transfections varied from 1 to 2 μg per 100 μl. The amount of a cationic lipid varied from 0 to 20 μg per 100 μl. Two solutions were mixed together to form a DNA-lipid solution. After incubation for 10 min at room temperature the resultant DNA-lipid solution was added to the cell cultures, growing as described before, and gently mixed. Alternatively, the DNA-lipid solution was diluted with 800 μl (for 24- or 6-well plates) of the appropriate medium (+/−FCS) and mixed. The diluted solution was then overlayed onto the cells, rinsed with the appropriate medium. […] A typical incubation time in the absence of serum was 4 hours. The transfection medium was then substituted with a complete growth medium. In the presence of serum, the transfection medium was usually not replaced and the cells continued to grow in the presence of complexes until the end of experiments (one step transfection).
Luciferase assay. […] The luciferase assay was performed by adding 5 to 10 μl of cell extract.
Just before transfection, the medium was removed and cells were supplied with 1 ml fresh medium with or without serum. […] In the absence of serum, the transfection medium was removed after 4 hours, and the cells were supplied with 1 ml fresh serum supplemented medium. […]

In the case of “5′-ACT TGG ATA CGC ACG-fluorescein-3 [fluorescein labelled oligonucleotide, reference compound]”, the fluorescence of cells (HeLa cells [1]; 1 μM fluorescein labelled oligonucleotide alone, after 4 and 24 hours, without serum) is reported as “faint fluorescence” and the “effect of serum on fluorescence and distribution” value (HeLa cells [1]; experiments performed in the presence of serum) is reported as “did not change the overall fluorescence and distribution”.

`CCCCCCCC/C=C\CCCCCCCC(=O)OCCN(CCOC(=O)CCCCCCC/C=C\CCCCCCCC)C(=O)[C@@H](N)CCCCN.Cl.Cl` [Compound 1, L-Lysine-bis(O,O′-oleoyl-β-hydroxyethyl)amide dihydrochloride] was tested, and the fluorescence of cells (HeLa cells [2]; after 45 min) was “bright cytoplasmic punktate fluorescence”, the fluorescence of cells (HeLa cells [2]; after 24 hours) was “very bright punktate fluorescence in the cytoplasm” and the “transfection higher than obtained with DOTAP” value (K562 cells) was “more than 10 fold”. The “transfection in comparison to DOTAP transfection” value (HeLa cells [3]; absence of serum) was 6 fold, the “transfection in comparison to DOTAP transfection” value (HeLa cells [3]; presence of serum) was 12 fold and the “time after which the same luciferase activity (4.5×10^4 light units) was observed” value (HeLa cells [3]; with serum) was 3 hours. The “fluorescence intensity at 25 μM compared with 8 μM compound (1)” value (HeLa cells [1]; 1 μM fluorescein labelled oligonucleotide) was “higher”, the fluorescence of cells (HeLa cells [1]; 1 μM fluorescein labelled oligonucleotide in the presence of compound (1) (8 μM and 25 μM), 4 hours) was “very bright punktate fluorescence in the cytoplasm” and the fluorescence of cells (HeLa cells [1]; 1 μM fluorescein labelled oligonucleotide in the presence of compound (1), after 24 hours) was “very clear punktate fluorescence in the cytoplasm”.
